Data published in patent US20240279218A1 (Hoffmann-La Roche Inc., priority 2016, published 2024).
pKi: −log10 of the molar value.

Key:
h-GABA-A α5β3γ2 [1] = biological target: T1, h-GABA-A α5β3γ2 (Homo sapiens (Human), UniProt P18507+P31644); assay: [3H]flumazenil competition binding assay, membranes of HEK293 cells expressing human GABAA receptors; settings: displacement of [3H]flumazenil 0.5 nM, HEK293 cells expressing human receptors, mean of two determinations; read-out: Ki h-GABA-A α5β3γ2
Outline: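 Displacement of [3H]flumazenil from membranes of HEK293 cells transiently expressing human α5β3γ2 receptors, in Krebs-tris buffer pH 7.5. Incubation to equilibrium, 1 h at 4° C., then filtration and scintillation counting. Ki is the mean of two determinations.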

h-GABA-A α5β3γ2 [2] = biological target: T1, h-GABA-A α5β3γ2; assay: Two-electrode voltage clamp electrophysiology in Xenopus oocytes expressing GABAA receptors, modulation of GABA EC20 current; assay type: cell-based; settings: Xenopus oocytes; for Efficacy (GABA) %: % modulation of GABA EC20 = 100*(Fold increase−1); for Fold increase h-GABA-A α5β3γ2 oocyte: GABA EC20, test compound at approx. 30 fold its Ki
Outline: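 Values are % modulation of an EC20 GABA response, derived point by point from the ratio of compound-exposed versus control current traces (extremum taken, 100×(fold−1)). Recordings used oocytes injected with human α5, β3, γ2 mRNA, clamped at −80 mV at room temperature, at least 3 oocytes each.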

Structure (SMILES)	pKi (h-GABA-A α5β3γ2 [1])	Efficacy (GABA) % (h-GABA-A α5β3γ2 [2]) [%]	Fold increase h-GABA-A α5β3γ2 oocyte (h-GABA-A α5β3γ2 [2])
Cc1ccc(-c2noc(C)c2COc2ccc(C(=O)N[C@H]3CCOC[C@@H]3O)cn2)cn1 [Example 127, N-((3R,4S)-3-hydroxytetrahydropyran-4-yl)-6-((5-methyl-3-(6-methyl-3-pyridyl)isoxazol-4-yl)methoxy)pyridine-3-carboxamide]	7.64	50	1.5
Cc1onc(-c2ccc(C3CC3)nc2)c1COc1ccc(C(=O)NC2CCOCC2)cn1 [Example 128, 6-((3-(6-cyclopropyl-3-pyridyl)-5-methyl-isoxazol-4-yl)methoxy)-N-tetrahydropyran-4-yl-pyridine-3-carboxamide]	8.21	107	2.07
CCC[C@@H](CO)NC(=O)c1ccc(OCc2c(-c3ccc(C4CC4)nc3)noc2C)nc1 [Example 129, 6-((3-(6-cyclopropyl-3-pyridyl)-5-methyl-isoxazol-4-yl)methoxy)-N-((1S)-1-(hydroxymethyl)butyl)pyridine-3-carboxamide]	7.59	156	2.56
Cc1onc(-c2ccc(C3CC3)nc2)c1COc1ccc(C(=O)NC2CCS(=O)(=O)CC2)cn1 [Example 130, 6-((3-(6-cyclopropyl-3-pyridyl)-5-methyl-isoxazol-4-yl)methoxy)-N-(1,1-dioxothian-4-yl)pyridine-3-carboxamide]	7.52	128	2.28
Cc1ccc(-c2noc(C)c2COc2ccc(C(=O)N[C@@H]3CCCC(F)(F)[C@H]3O)cn2)cn1 [Example 131, N-((1R,2S)-3,3-difluoro-2-hydroxycyclohexyl)-6-((5-methyl-3-(6-methylpyridin-3-yl)isoxazol-4-yl)methoxy)pyridine-3-carboxamide]	7.59	51	1.51

Next, values leading:

pKi (h-GABA-A α5β3γ2 [1])	Efficacy (GABA) % (h-GABA-A α5β3γ2 [2]) [%]	Fold increase h-GABA-A α5β3γ2 oocyte (h-GABA-A α5β3γ2 [2])	Structure (SMILES)
7.42	64	1.64	Cc1ccc(-c2noc(C)c2COc2ccc(C(=O)N[C@@H]3CCCC[C@H]3O)cn2)cn1 [Example 132, N-((1R,2R)-2-hydroxycyclohexyl)-6-((5-methyl-3-(6-methylpyridin-3-yl)isoxazol-4-yl)methoxy)pyridine-3-carboxamide]
7.37	95	1.95	Cc1ccc(-c2noc(C)c2COc2ccc(C(=O)N[C@H]3CCCC(F)(F)[C@@H]3O)cn2)cn1 [Example 133, N-((1S,2R)-3,3-difluoro-2-hydroxycyclohexyl)-6-((5-methyl-3-(6-methylpyridin-3-yl)isoxazol-4-yl)methoxy)pyridine-3-carboxamide]
7.68	66	1.66	Cc1ccc(-c2noc(C)c2COc2ccc(C(=O)N[C@@H]3CCOC[C@H]3O)cn2)cn1 [Example 134, N-((3S,4R)-3-hydroxytetrahydro-2H-pyran-4-yl)-6-((5-methyl-3-(6-methylpyridin-3-yl)isoxazol-4-yl)methoxy)pyridine-3-carboxamide]
7.52	92	1.92	Cc1ccc(-c2noc(C)c2COc2ccc(C(=O)N[C@H]3CCCC[C@@H]3O)cn2)cn1 [Example 135, N-((1S,2S)-2-hydroxycyclohexyl)-6-((5-methyl-3-(6-methylpyridin-3-yl)isoxazol-4-yl)methoxy)pyridine-3-carboxamide]
7.83	54	1.54	CNC(=O)c1ccc(OCc2c(-c3ccc(C)nc3)noc2C)nc1F [Example 136, 2-fluoro-N-methyl-6-((5-methyl-3-(6-methylpyridin-3-yl)isoxazol-4-yl)methoxy)pyridine-3-carboxamide]
